# Measurements taken from PubChem BioAssay (NCI).
#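 Test compounds were applied to cells in 96-well plates for 48 hours at 5 doses. At the TGI there is no net growth.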
# Key:
# Experiment in all cases: NCI-60 cell line screen, 48 h
# NCI/ADR-RES ovarian = system: NCI/ADR-RES ovarian
# SNB-75 CNS = system: SNB-75 CNS
# HL-60(TB) leukemia = system: HL-60(TB) leukemia
# SK-OV-3 ovarian = system: SK-OV-3 ovarian
# HCT-116 colon = system: HCT-116 colon
# IGROV1 ovarian = system: IGROV1 ovarian
# NCI-H23 lung = system: NCI-H23 lung
# OVCAR-5 ovarian = system: OVCAR-5 ovarian
# K-562 leukemia = system: K-562 leukemia
# 786-0 renal = system: 786-0 renal
# A549 NSCLC = system: A549 NSCLC
# UO-31 renal = system: UO-31 renal
# NCI-H522 lung = system: NCI-H522 lung
# UACC-257 melanoma = system: UACC-257 melanoma
# OVCAR-3 ovarian = system: OVCAR-3 ovarian
# SF-539 CNS = system: SF-539 CNS
# CAKI-1 renal = system: CAKI-1 renal
# SF-268 CNS = system: SF-268 CNS
# SW-620 colon = system: SW-620 colon
# MALME-3M melanoma = system: MALME-3M melanoma
# SF-295 CNS = system: SF-295 CNS
# RXF 393 renal = system: RXF 393 renal
# HS 578T breast = system: HS 578T breast
# T-47D breast = system: T-47D breast
# MOLT-4 leukemia = system: MOLT-4 leukemia
# NCI-H226 lung = system: NCI-H226 lung
# A498 renal = system: A498 renal
# HOP-62 NSCLC = system: HOP-62 NSCLC
# SR leukemia = system: SR leukemia
# UACC-62 melanoma = system: UACC-62 melanoma
# U251 CNS = system: U251 CNS
# OVCAR-8 ovarian = system: OVCAR-8 ovarian
# SNB-19 CNS = system: SNB-19 CNS
# BT-549 breast = system: BT-549 breast
# EKVX NSCLC = system: EKVX NSCLC
# SK-MEL-28 melanoma = system: SK-MEL-28 melanoma
# SK-MEL-5 melanoma = system: SK-MEL-5 melanoma
# MCF7 breast = system: MCF7 breast
# MDA-MB-231 breast = system: MDA-MB-231 breast
# NCI-H460 lung = system: NCI-H460 lung
# CCRF-CEM leukemia = system: CCRF-CEM leukemia
# M14 melanoma = system: M14 melanoma
# KM12 colon = system: KM12 colon
# TK-10 renal = system: TK-10 renal
# HCT-15 colon = system: HCT-15 colon
# COLO 205 colon = system: COLO 205 colon
# LOX IMVI melanoma = system: LOX IMVI melanoma
# HOP-92 NSCLC = system: HOP-92 NSCLC
# PC-3 prostate = system: PC-3 prostate
# OVCAR-4 ovarian = system: OVCAR-4 ovarian
# RPMI-8226 leukemia = system: RPMI-8226 leukemia
# SN12C renal = system: SN12C renal
# SK-MEL-2 melanoma = system: SK-MEL-2 melanoma
# DU-145 prostate = system: DU-145 prostate
# ACHN renal = system: ACHN renal
# MDA-N = system: MDA-N
# HT29 colon = system: HT29 colon
# MDA-MB-435 = system: MDA-MB-435
smiles,measurement,setting,value
O=c1[nH]cnc2[nH]cc(CN3CCCCC3)c12,TGI,NCI/ADR-RES ovarian,> 100 µM
same,TGI,SNB-75 CNS,> 100 µM
same,TGI,HL-60(TB) leukemia,38.2 µM
same,TGI,SK-OV-3 ovarian,> 100 µM
same,TGI,HCT-116 colon,30.6 µM
same,TGI,IGROV1 ovarian,> 100 µM
same,TGI,NCI-H23 lung,> 100 µM
same,TGI,OVCAR-5 ovarian,> 100 µM
same,TGI,K-562 leukemia,> 100 µM
same,TGI,786-0 renal,> 100 µM
same,TGI,A549 NSCLC,> 100 µM
same,TGI,UO-31 renal,> 100 µM
same,TGI,NCI-H522 lung,> 100 µM
same,TGI,UACC-257 melanoma,87.3 µM
same,TGI,OVCAR-3 ovarian,> 100 µM
same,TGI,SF-539 CNS,> 100 µM
same,TGI,CAKI-1 renal,> 100 µM
same,TGI,SF-268 CNS,> 100 µM
same,TGI,SW-620 colon,> 100 µM
same,TGI,MALME-3M melanoma,> 100 µM
same,TGI,SF-295 CNS,> 100 µM
same,TGI,RXF 393 renal,> 100 µM
same,TGI,HS 578T breast,> 100 µM
same,TGI,T-47D breast,> 100 µM
same,TGI,MOLT-4 leukemia,> 100 µM
same,TGI,NCI-H226 lung,> 100 µM
same,TGI,A498 renal,> 100 µM
same,TGI,HOP-62 NSCLC,> 100 µM
same,TGI,SR leukemia,> 100 µM
same,TGI,UACC-62 melanoma,> 100 µM
same,TGI,U251 CNS,> 100 µM
same,TGI,OVCAR-8 ovarian,> 100 µM
same,TGI,SNB-19 CNS,> 100 µM
same,TGI,BT-549 breast,> 100 µM
same,TGI,EKVX NSCLC,> 100 µM
same,TGI,SK-MEL-28 melanoma,> 100 µM
same,TGI,SK-MEL-5 melanoma,> 100 µM
same,TGI,MCF7 breast,> 100 µM
same,TGI,MDA-MB-231 breast,> 100 µM
same,TGI,NCI-H460 lung,43.8 µM
same,TGI,CCRF-CEM leukemia,36.2 µM
same,TGI,M14 melanoma,> 100 µM
same,TGI,KM12 colon,> 100 µM
same,TGI,TK-10 renal,> 100 µM
same,TGI,HCT-15 colon,> 100 µM
same,TGI,COLO 205 colon,> 100 µM
same,TGI,LOX IMVI melanoma,> 100 µM
same,TGI,HOP-92 NSCLC,> 100 µM
same,TGI,PC-3 prostate,> 100 µM
same,TGI,OVCAR-4 ovarian,> 100 µM
same,TGI,RPMI-8226 leukemia,87.2 µM
same,TGI,SN12C renal,> 100 µM
same,TGI,SK-MEL-2 melanoma,> 100 µM
same,TGI,DU-145 prostate,> 100 µM
same,TGI,ACHN renal,> 100 µM
same,TGI,MDA-N,> 100 µM
same,TGI,HT29 colon,> 100 µM
same,TGI,MDA-MB-435,> 100 µM
